IC50, AC50 and EC50 data for nine compounds are collected here from ChEMBL document CHEMBL1201862, “PubChem BioAssay data set” (2004).

Molecules are shown by their SMILES. The source made the active and inactive calls.

One assay deals with Genome polyprotein (dengue virus type 2, UniProt P29990). Put plainly: flavivirus cap methylation enzyme inhibition – biochemical, confirmation dose response, primary screen (AID 588689). The format is functional.
A short description of assay [1]: blockers of HIV-1 envelope-mediated cell-cell fusion – cherry-pick, dose response (AID 652057). The format is functional, cell-based.
The nature of assay [2]: blockers of HIV-1 ZM109 envelope-driven cell-cell fusion – HeLa effector, CEM target cells, luciferase, cherry-pick, dose response (AID 652058).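 Note: luciferase signal from HIV-1 Env mediated cell-cell fusion of effector and target cells.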 In kind it is functional, cell-based.
Assay [3] is described as follows: off-target signal loss in HeLa-CEM21 co-culture – HeLa F-luc CTL cells, cherry-picked, counter-screen for HIV-1 Env fusion inhibitor project, dose response (AID 652040).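 Note: potency for signal decrease marking cytotoxic or nonspecific inhibition.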 The format is functional, cell-based. Background: Counterscreens check selectivity or assay interference.
The nature of assay [4]: HIV-1 AD8 envelope cell-cell fusion blockers – cherry-pick, dose response (AID 652062).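 Note: luciferase signal from cell-cell fusion driven by HIV-1 clade B AD8 Env; potency is for inhibitors of fusion seen as a drop in luminescence.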 The format is functional, cell-based.
The next assay deals with H9c2. Put plainly: cells. The format is functional, cell-based. The note with it: Rattus norvegicus, H9c2, Myocardium.
A further assay has as its target T1, Galanin receptor type 3 (Homo sapiens, UniProt O60755).
T1 sequence (O60755 whole entry): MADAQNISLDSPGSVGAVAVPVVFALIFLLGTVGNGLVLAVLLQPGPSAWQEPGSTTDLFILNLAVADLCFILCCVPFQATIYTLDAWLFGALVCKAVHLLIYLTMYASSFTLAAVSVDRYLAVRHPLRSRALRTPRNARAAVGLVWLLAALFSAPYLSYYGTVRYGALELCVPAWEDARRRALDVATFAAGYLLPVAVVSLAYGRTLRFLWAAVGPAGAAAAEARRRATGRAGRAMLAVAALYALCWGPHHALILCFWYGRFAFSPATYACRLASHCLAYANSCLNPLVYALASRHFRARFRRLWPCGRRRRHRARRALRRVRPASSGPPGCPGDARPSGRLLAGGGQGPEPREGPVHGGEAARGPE
In words: Fluorescence-based cell-based primary high throughput dose response assay to identify antagonists of the Galanin Receptor 3 (GalR3). In kind it is functional.

A further assay in a line: cells. The format is functional, cell-based. The note with it: HEK-CNG.
In assay [5] the test system is BJ. Put plainly: BJ-TERT fibroblast viability loss – cell-based, RAS-independent, luminescence, dose response (AID 1933). The format is functional, Homo sapiens. To be noted: Homo sapiens, BJ.
Assay [6] concerns BJ. Put plainly: cells. The format is functional, cell-based, Homo sapiens. The note with it: Homo sapiens, BJ.
Assay [7] in a line: Trypanosoma cruzi growth suppression in host cells – NIH3T3 host cells, beta-gal luminescence, confirmation (AID 2044).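 Note: intracellular parasites grown in NIH/3T3 mouse fibroblasts as host cells; luminescent beta-galactosidase reporter signal from transgenic T. cruzi replicating inside host cells; inhibitors lower the luminescence signal.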 In kind it is functional, cell-based.
Assay [8] can be described thus: NIH3T3 cell viability loss – ATP luminescence, mouse fibroblasts, counter-screen, dose response (AID 2010).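 Note: cells exposed to compound for about 90 hours before reading.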 The format is functional, cell-based.
The test system of assay [9] is BJ. In words: BJ-TERT-LT-ST fibroblast viability loss – cell-based, RAS-independent, luminescence, dose response (AID 1935).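 Note: BJ fibroblasts immortalized with TERT plus LT and ST oncogenes.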 The format is functional, Homo sapiens. The note with it: Homo sapiens, BJ.
Assay [10] is described as follows: DRD fibroblast viability loss – cell-based, non-viral oncogenic, luminescence, dose response (AID 1934). The format is functional. The note with it: Homo sapiens.
In assay [11] the target is Glucose-6-phosphate 1-dehydrogenase (Homo sapiens, UniProt P11413). Put plainly: inhibition of Homo sapiens G6PD, dose series – biochemical, fluorescence, selectivity assay for P. falciparum G6PD inhibitor project, dose response (AID 504792). In kind it is functional.
The target in assay [12] is T2, Heat shock factor protein 1 (Mus musculus, UniProt P38532).
T2 sequence (P38532 whole entry): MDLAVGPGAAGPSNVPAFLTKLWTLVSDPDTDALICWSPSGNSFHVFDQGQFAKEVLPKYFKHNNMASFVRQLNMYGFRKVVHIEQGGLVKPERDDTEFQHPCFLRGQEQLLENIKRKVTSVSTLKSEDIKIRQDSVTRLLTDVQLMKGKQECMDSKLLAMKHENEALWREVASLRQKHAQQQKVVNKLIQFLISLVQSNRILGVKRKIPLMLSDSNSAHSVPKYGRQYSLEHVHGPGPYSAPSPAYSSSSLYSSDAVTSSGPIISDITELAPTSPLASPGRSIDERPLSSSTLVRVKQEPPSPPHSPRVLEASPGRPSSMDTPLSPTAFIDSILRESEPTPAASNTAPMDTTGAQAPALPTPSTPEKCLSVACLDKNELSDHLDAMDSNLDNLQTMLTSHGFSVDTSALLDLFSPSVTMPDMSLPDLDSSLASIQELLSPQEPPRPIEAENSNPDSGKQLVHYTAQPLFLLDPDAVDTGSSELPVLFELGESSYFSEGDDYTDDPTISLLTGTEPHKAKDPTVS
In words: enhancement of HSF1-driven luciferase signal – cell-based, NIH3T3, luminescence, dose retest, confirmation (AID 435004).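 Note: stress induced by proteasome inhibitor MG132 added 30 min after compound; luciferase reporter driven by HSF1 response element in NIH3T3 cells; actives raise luminescence as potentiators of the MG132 stress response.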 The format is functional.

Assay [13] deals with T3, Replicative DNA helicase DnaB (Mycobacterium tuberculosis, UniProt P9WMR3).
T3 sequence (P9WMR3 whole entry): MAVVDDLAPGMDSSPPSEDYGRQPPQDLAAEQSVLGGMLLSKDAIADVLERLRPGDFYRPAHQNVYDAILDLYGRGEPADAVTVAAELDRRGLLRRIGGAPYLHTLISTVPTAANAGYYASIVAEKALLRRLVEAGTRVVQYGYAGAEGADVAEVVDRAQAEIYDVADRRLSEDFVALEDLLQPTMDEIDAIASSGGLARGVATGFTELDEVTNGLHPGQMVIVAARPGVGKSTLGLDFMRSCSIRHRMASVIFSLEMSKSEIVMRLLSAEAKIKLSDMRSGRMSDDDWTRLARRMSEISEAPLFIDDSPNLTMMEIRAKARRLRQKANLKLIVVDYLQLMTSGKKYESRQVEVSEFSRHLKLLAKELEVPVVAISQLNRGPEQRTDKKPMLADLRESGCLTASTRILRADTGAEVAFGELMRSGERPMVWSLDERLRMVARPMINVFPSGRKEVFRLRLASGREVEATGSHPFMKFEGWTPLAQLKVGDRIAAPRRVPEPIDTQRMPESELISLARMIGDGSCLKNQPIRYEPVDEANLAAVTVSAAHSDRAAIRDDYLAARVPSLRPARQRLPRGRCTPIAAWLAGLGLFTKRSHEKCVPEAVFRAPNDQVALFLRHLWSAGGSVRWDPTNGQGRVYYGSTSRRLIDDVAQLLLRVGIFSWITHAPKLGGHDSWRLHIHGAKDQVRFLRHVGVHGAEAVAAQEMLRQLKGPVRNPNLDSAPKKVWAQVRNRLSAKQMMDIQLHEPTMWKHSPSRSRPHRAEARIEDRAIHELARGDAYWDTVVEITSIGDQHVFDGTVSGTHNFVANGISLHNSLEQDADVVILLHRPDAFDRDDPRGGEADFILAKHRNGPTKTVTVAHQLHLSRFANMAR
In words: DnaB intein splicing inhibitors, dose response, biochemical, cell-free fluorescence (AID 449749). In kind it is functional.

Another assay concerns the target T4, Protein RecA (Mycobacterium tuberculosis, UniProt P9WHJ3).
T4 sequence (P9WHJ3 whole entry): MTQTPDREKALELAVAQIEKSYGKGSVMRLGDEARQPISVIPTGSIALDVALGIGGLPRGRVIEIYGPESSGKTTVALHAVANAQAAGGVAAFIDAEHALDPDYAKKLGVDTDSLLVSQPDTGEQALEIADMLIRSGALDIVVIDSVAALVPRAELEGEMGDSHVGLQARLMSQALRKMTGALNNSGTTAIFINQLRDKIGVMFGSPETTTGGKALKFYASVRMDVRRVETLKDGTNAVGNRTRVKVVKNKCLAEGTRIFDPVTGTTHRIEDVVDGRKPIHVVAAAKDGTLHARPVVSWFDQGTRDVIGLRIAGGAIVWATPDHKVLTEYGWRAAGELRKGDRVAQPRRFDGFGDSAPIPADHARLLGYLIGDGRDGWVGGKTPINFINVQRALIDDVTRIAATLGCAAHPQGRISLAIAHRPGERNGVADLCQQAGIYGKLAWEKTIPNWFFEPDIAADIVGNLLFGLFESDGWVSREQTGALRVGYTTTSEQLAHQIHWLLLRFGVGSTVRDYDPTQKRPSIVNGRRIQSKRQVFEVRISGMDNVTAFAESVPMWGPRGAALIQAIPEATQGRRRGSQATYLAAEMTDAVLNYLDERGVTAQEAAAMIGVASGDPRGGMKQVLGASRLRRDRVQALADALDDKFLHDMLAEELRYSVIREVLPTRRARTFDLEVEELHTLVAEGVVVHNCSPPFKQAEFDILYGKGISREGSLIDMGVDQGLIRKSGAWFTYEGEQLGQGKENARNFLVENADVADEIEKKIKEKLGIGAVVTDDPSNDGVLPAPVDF
In words: Fluorescence Cell-Free Homogeneous Dose Retest to Identify Inhibitors of RecA-Intein Splicing Activity. [Related pubchem assays (depositor defined):AID2097, AID2223, AID489010, AID492950]. The format is functional.

Assay [14] addresses Induced myeloid leukemia cell differentiation protein Mcl-1 (Homo sapiens, UniProt Q07820). In kind it is functional.
The target of the next assay is Cytochrome P450 2D6 (Homo sapiens, UniProt P10635).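 Note: CYP2D6 member of a cytochrome P450 panel assay.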
For the next assay, the target named is T5, Cytochrome P450 1A2 (Homo sapiens, UniProt P05177).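 Note: PubChem cytochrome P450 panel assay, CYP1A2 panel member.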
T5 sequence (P05177 whole entry): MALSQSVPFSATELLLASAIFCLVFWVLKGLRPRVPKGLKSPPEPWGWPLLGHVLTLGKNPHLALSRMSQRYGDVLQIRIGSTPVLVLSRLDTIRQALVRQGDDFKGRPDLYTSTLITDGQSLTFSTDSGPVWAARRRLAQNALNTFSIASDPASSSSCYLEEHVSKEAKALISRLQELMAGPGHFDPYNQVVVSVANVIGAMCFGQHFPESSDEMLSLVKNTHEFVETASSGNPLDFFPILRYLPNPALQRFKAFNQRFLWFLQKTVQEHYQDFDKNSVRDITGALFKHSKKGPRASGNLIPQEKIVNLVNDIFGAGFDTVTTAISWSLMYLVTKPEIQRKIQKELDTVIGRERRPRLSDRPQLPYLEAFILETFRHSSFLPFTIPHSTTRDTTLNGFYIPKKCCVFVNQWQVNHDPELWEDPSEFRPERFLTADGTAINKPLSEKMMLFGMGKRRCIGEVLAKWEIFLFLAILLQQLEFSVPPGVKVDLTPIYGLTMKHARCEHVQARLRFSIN

The target in assay [15] is T6, Carboxy-terminal domain RNA polymerase II polypeptide A small phosphatase 1 (Homo sapiens, UniProt Q9GZU7).
T6 sequence (Q9GZU7 whole entry): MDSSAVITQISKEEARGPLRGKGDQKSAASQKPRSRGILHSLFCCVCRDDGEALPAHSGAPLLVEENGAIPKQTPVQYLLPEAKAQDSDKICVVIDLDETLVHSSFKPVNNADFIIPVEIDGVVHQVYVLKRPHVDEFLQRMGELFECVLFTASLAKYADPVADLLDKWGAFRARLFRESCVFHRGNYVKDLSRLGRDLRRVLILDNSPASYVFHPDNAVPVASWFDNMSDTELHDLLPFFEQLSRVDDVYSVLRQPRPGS
Put plainly: CTDSP1 inhibitors, concentration-response, biochemical, absorbance readout, ultra-high-throughput screen actives (AID 540297). In kind it is functional.

The target in assay [16] is DNA (cytosine-5)-methyltransferase 1 (Homo sapiens, UniProt P26358). Put plainly: inhibition of DNA methylation by DNMT1 – biochemical, fluorescent molecular beacon, confirmation (AID 602386). The format is functional.
Sequence of DNA (cytosine-5)-methyltransferase 1 (P26358 whole entry): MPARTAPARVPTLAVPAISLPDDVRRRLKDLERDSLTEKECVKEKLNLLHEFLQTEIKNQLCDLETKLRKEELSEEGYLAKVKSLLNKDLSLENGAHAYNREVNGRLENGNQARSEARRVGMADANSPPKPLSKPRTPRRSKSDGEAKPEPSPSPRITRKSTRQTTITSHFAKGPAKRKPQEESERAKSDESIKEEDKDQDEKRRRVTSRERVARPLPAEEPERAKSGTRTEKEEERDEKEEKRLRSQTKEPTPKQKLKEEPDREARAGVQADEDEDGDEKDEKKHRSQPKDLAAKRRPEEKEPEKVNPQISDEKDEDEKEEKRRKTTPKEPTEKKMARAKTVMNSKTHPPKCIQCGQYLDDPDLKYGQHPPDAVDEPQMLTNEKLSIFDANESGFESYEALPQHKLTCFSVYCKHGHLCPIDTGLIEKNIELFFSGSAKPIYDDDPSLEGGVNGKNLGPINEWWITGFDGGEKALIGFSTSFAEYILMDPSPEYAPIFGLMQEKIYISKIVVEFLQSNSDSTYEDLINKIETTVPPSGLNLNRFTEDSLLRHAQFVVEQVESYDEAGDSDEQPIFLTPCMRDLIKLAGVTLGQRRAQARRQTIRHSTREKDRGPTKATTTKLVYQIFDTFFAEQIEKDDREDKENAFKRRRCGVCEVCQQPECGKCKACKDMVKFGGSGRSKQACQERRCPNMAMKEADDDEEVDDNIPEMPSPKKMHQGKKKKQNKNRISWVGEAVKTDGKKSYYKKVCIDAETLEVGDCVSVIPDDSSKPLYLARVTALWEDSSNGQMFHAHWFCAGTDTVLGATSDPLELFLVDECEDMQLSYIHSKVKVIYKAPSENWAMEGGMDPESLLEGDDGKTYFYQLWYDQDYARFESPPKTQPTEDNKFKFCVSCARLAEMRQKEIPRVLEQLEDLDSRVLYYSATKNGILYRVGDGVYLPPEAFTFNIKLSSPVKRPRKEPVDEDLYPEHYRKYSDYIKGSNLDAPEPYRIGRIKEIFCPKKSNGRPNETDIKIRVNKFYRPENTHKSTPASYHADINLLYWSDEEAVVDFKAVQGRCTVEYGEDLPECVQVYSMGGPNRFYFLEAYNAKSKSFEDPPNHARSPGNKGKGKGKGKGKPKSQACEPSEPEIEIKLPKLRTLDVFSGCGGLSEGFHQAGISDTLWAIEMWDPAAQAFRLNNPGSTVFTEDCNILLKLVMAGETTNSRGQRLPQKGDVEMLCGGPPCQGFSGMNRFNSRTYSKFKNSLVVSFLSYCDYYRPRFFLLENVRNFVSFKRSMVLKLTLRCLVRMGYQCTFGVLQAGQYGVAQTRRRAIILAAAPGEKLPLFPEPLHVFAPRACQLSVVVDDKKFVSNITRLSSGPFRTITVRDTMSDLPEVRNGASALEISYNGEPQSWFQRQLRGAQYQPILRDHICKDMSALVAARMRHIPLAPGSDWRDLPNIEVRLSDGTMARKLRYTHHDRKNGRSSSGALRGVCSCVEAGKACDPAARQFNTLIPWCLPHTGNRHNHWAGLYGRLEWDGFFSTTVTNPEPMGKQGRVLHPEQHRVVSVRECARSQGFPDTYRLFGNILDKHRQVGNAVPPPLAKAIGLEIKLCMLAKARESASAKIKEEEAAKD

Sequence of Genome polyprotein (P29990 2492-3391 limits assumed): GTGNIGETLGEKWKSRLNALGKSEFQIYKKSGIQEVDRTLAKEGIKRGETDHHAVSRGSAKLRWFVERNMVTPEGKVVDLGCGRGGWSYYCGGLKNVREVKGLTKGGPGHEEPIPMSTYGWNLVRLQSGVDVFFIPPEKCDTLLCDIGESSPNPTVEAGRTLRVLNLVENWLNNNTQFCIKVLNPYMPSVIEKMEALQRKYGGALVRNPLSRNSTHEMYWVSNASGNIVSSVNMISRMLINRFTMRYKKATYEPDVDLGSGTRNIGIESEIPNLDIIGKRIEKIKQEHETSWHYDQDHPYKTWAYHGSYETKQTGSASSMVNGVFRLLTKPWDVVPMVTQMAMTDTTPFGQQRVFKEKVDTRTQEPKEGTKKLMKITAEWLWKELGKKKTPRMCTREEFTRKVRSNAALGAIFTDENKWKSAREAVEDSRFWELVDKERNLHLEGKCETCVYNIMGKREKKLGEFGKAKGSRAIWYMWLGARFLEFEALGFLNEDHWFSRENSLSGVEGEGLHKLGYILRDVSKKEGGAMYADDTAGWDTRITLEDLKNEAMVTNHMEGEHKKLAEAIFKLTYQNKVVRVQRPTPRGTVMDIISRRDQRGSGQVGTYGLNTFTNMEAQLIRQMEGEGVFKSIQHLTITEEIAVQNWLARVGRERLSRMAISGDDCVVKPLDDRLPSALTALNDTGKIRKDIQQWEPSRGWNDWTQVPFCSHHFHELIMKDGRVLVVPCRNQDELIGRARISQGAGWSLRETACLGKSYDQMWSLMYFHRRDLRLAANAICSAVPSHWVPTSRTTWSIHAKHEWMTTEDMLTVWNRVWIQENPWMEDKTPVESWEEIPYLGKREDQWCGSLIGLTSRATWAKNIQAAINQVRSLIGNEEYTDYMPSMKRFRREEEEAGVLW
Sequence of Glucose-6-phosphate 1-dehydrogenase (P11413 whole entry): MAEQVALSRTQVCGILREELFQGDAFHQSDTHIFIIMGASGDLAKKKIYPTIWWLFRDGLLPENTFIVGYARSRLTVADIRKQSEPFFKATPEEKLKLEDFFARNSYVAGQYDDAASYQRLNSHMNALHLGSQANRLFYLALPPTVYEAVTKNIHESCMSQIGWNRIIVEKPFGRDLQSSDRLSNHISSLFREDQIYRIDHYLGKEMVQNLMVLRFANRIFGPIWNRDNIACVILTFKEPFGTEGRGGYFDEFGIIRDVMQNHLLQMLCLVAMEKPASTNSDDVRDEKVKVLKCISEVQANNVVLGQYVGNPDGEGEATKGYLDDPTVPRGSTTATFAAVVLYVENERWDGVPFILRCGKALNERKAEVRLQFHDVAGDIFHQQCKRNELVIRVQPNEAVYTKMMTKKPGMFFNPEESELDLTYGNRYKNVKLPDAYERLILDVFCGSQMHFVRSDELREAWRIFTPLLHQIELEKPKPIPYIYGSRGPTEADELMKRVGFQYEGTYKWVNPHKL
Sequence of Cytochrome P450 2D6 (P10635 whole entry): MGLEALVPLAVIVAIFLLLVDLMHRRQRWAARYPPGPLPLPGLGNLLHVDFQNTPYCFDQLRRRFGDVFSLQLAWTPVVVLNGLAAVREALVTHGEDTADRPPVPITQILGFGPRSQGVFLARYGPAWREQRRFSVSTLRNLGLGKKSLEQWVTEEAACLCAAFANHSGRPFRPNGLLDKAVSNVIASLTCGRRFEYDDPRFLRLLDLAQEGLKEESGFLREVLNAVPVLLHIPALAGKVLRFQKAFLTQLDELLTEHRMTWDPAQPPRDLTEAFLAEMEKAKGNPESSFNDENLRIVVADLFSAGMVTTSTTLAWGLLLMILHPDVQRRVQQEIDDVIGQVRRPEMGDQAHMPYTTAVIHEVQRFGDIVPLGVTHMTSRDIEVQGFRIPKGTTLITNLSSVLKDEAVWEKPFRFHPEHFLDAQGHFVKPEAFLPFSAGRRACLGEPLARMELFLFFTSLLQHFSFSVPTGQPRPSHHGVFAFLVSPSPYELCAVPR
Sequence of Induced myeloid leukemia cell differentiation protein Mcl-1 (Q07820 whole entry): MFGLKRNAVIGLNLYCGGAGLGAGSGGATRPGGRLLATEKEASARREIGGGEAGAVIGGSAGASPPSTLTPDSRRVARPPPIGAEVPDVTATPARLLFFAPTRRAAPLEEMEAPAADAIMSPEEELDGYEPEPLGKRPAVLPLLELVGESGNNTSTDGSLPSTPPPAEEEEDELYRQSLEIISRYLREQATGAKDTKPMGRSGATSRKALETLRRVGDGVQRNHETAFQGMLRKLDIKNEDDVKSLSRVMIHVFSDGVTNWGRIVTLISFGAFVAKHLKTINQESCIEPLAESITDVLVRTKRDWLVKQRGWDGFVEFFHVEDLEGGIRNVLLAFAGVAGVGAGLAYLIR

By IC50 is commonly meant the concentration that gives 50% inhibition. On to `O=C(O)CN1C(=O)/C(=C\c2cccc(OCc3ccccc3F)c2)SC1=S`, for which the IC50 at Genome polyprotein was 38.2 µM (active).
What is called AC50 is the concentration giving half of the maximal activity seen. For `COc1ccc2nc(O)c(CN(Cc3cccs3)Cc3nnnn3Cc3ccccc3)cc2c1`, the AC50 is 3.01 µM (active) in assay [1], 5.4 µM (active) in assay [2], 4.44 µM (active) in assay [3] and 4.94 µM (active) in [4].
As usually defined, the EC50 is the midpoint of the concentration-response curve. `COc1cccc(Cn2nc(C(=O)O)c3ccccc3c2=O)c1`: the IC50 in the assay on H9c2 was > 79 µM (inactive); on Galanin receptor type 3 it was > 29.9 µM (inactive). The EC50 in the assay “cells” was > 29.9 µM (inactive).
Consider `O=C(COC(=O)c1ccc2c(c1[N+](=O)[O-])C(=O)c1ccccc1C2=O)NC1CC1`, for which the EC50 in the assay on BJ [5] was > 150 µM (not active); in the assay with BJ [6], > 150 µM (not active); in assay [7], 4.65 µM (active); in assay [8], 9.54 µM (active); with BJ [9] it was > 150 µM (not active); in assay [10] it was > 150 µM (not active). Moreover, the EC50 is 17 µM (active) in assay [12] and 0.238 µM (active) on Protein RecA. Besides, in assay [11], the IC50 was > 80 µM (inactive). Further, the AC50 in [13] was 3.81 µM (active).
For the compound `CC1(C)CC(=O)C(=Cc2cn(CCC#N)nc2-c2ccc(F)cc2)C(=O)C1`, the concentration for half-maximal inhibition (IC50) at Genome polyprotein is 52.8 µM (active).
As to `COCCN(C(=O)COC(=O)C12CC3CC(CC(Cl)(C3)C1)C2)c1c(N)n(Cc2ccccc2)c(=O)[nH]c1=O`, the AC50 was 4.61 µM (active) in [1], 10.2 µM (active) in assay [2], 10.7 µM (active) in assay [3] and 1.44 µM (active) in assay [4].
For the compound `O=C(CCN1C(=O)S/C(=C\c2ccccc2)C1=O)Nc1ccc(S(=O)(=O)Nc2nccs2)cc1`, the IC50 in [14] is 7.24 µM (active); at Genome polyprotein it was > 100 µM (active). For the same compound, the AC50 is 6.31 µM (inconclusive) on Cytochrome P450 2D6 and 31.6 µM (inconclusive) at Cytochrome P450 1A2.
In the case of `O=CC(O)C1OC(=O)C(O)C1O` (stereo not drawn), the figures for the IC50 in assay [15] and in assay [16] were 4.05 µM (active) and 14.4 µM (active), respectively.
Consider `CC(C)CCN(N=O)[C@@H](Cc1ccccc1)CN(N=O)[C@@H](Cc1ccccc1)CN(C)N=O`, for which the AC50 in assay [1] is 5.26 µM (active); in assay [2], 6.6 µM (active); in [3], 34.7 µM (active); in [4], 5.64 µM (active).
